Measured values taken from patent US20070154393A1, “Bioassay for volatile low molecular weight insecticides and methods of use” (priority 2005, published 2007).
Structures can show the parent of a compound that is named as a salt. Where two headings read alike, the source gives them in different places.

What was measured:
[1] = system: insecticide-susceptible Drosophila melanogaster (Canton-S strain); type: in vivo
Description: The insecticide-susceptible Canton-S strain of Drosophila was obtained from the Bloomington Drosophila stock center (Indiana University, Bloomington, Ind.), and used exclusively in all studies. Flies were reared in 100-ml vials capped with acetate plugs (Fisher Scientific; Suwannee, Ga.) on a JAZZ-MIX diet (Fisher) prepared with a 2:1 ratio of water to apple juice. Flies were reared on a 12:12 photocycle at 24° C. and ambient relative humidity. Mixed-sex adults, less than 1-wk old, were used in bioassays.
Flies were briefly anesthetized in rearing vials with a pulse of CO2 and transferred to a CO2 flowbed (Genesee Scientific; San Diego, Calif.). Using a camel hair brush and a 5×5 cm sheet of rice paper, ten flies were placed into 7.0 ml dram vials. Prior to adding flies, each vial received a 0.5 cm^3 block of rearing diet that had been sufficiently dried on a paper towel to remove excessive moisture. The vials were then capped with open-top septum caps (Fisher) that were covered with fine mesh. The mesh was applied to the septum caps in advance using hot glue; it prevented fly escape but readily permitted gas exchange. The flies were allowed 1-hr to recover from the CO2 anesthesia. After one hour, single vials with flies were placed into 0.5 L glass jars, along with a filter paper tent (see FIG. 1). In a fume hood, filter paper tents were treated with insecticide dilutions or acetone for controls. The jars were then rapidly closed tightly with a metal lid. After 24 hours of exposure, mortality was scored with the aid of a magnifying glass.
All test compounds and solvents were >99% purity, and were purchased from Sigma-Aldrich Chemical (Milwaukee, Wis.). See Table 1 for a listing of the test compounds and their structures. Insecticide stock solutions were prepared at a standard concentration of 100 μg/μl in analytical grade acetone. For liquid insecticidal compounds, density in mg/μl was used to calculate weight on a per-volume basis. Stock solutions were held at −20° C. in sealed amber vials. In bioassay jars, filter paper tents were treated with stock volumes ranging from 2 to 20 μl, depending on the inherent toxicity of the test compound. These volumes of insecticide stock provided test concentrations of 200 to 2000 μg insecticide per replicate jar. A range of 4-5 concentrations plus a control were tested for each insecticide, and each range was repeated five times over at least three days. Controls received a volume of acetone identical to the highest insecticide volume that was tested (i.e., 10 μl for menthofuran; 20 μl for all other insecticides). Between uses, bioassay jars and lids were washed in a dishwasher, then baked 12-16 hr at 90° C. in a drying oven.
Probit and regression analyses were performed using the PROC PROBIT and PROC REG procedures, respectively. […] If control mortality ever exceeded 10% in a given replicate, that replicate was discarded.
(§1) Four Drosophila strains were used, all obtained from the Bloomington Drosophila Stock Center (Indiana University; Bloomington, Ind.). The Canton-S strain was used as the insecticide-susceptible standard. The Hikone-R strain is metabolically-resistant with elevated cytochrome P450 levels (Waters et al., 1984; Sundseth et al., 1989; Le Goff et al., 2003; Festucci-Buselli et al., 2005). Hikone-R is resistant to a number of insecticides, including malathion, DDT and neonicotinoids (Sundseth et al., 1989; Daborn et al., 2001). Two resistant neurological-mutant strains were also tested. […] Flies were reared in 100-ml vials capped with acetate plugs (Fisher Scientific; Suwanee, Ga.) on a commercial diet (JAZZ-MIX; Fisher Scientific). Flies were reared on a 12:12 photocycle at 24° C. and 60% relative humidity. Mixed-sex adults, less than 1-wk old, were used in bioassays.

[2] = system: metabolically-resistant Hikone-R strain of Drosophila (elevated cytochrome P450); type: in vivo; details: for Slope ± Std. Error (probit mortality line): Hikone-R, 24 hr
Description: Four Drosophila strains were used, all obtained from the Bloomington Drosophila Stock Center (Indiana University; Bloomington, Ind.). The Canton-S strain was used as the insecticide-susceptible standard. […] Two resistant neurological-mutant strains were also tested. […] Flies were reared in 100-ml vials capped with acetate plugs (Fisher Scientific; Suwanee, Ga.) on a commercial diet (JAZZ-MIX; Fisher Scientific). […] Mixed-sex adults, less than 1-wk old, were used in bioassays.
All volatile insecticide stocks were prepared at 100 μg/μl in analytical grade acetone. Rather than weigh the highly volatile liquid insecticides (i.e., all compounds except benzothiophene), weight was determined based on the density-volume relationship of each compound. […] The insecticide synergists PBO (piperonyl butoxide) and DEF (SSS-tributyl-phosphoro-trithioate) were obtained from Fluka Chemical Co. (Basel, Switzerland) and Mobay Chemical Co. (Kansas City, Mo.). […] Synergist stocks were prepared at 100 μg/ml in analytical grade acetone.
Briefly, bioassays took place in 0.5-l glass jars with metal lids. Mixed-sex flies were isolated from lab colonies and placed in 4-ml dram vials in groups of ten, along with a dried piece of laboratory diet. The dram vials were capped with open-top septum caps that were covered with fine mesh (held in place by non-toxic glue). For bioassays, the assembled dram vials were placed into the 0.5-l jars along with a folded filter paper “tent” (Whatman #1; Vineland, N.J.). The filter paper was treated with either an insecticide dilution or acetone, the jar was sealed with the metal lid, and the bioassay proceeded for 24-hr at room temperature. Mortality was scored based on a complete lack of movement by the flies. Four concentrations plus an acetone control were tested for all insecticides. Between five and ten replicates were performed for each concentration range on each strain-insecticide combination. Synergist bioassays were performed with a slight modification. Synergist stocks were applied to dram vials at 100 μl per vial to provide assay concentrations of 10 μg per vial. […] After treatment, vials were held at an angle in a fume hood and rotated ¼-turn each minute until the acetone evaporated. Flies and diet were added as above and held for 1-hr. Assays were initiated, run, and scored as above.
Probit analysis was performed using PROC PROBIT in the SAS software package (SAS Institute; Cary, N.C.). If control mortality ever exceeded 10% in a given replicate, that replicate was discarded.

[3] = system: Rd1 (Rdl-R) strain of Drosophila (GABA-gated chloride channel point mutation); type: in vivo, Drosophila melanogaster
Text: as §1
All experimental materials were purchased from Sigma-Aldrich-Fluka (Milwaukee, Wis.) and were of 99% purity or greater. […] All volatile insecticide stocks were prepared at 100 μg/μl in analytical grade acetone. Rather than weigh the highly volatile liquid insecticides (i.e., all compounds except benzothiophene), weight was determined based on the density-volume relationship of each compound. Four serial dilutions were prepared and tested for each insecticide as described previously (Scharf et al., 2006). The insecticide synergists PBO (piperonyl butoxide) and DEF (SSS-tributyl-phosphoro-trithioate) were obtained from Fluka Chemical Co. (Basel, Switzerland) and Mobay Chemical Co. (Kansas City, Mo.). Both synergists were >95% purity. Synergist stocks were prepared at 100 μg/ml in analytical grade acetone.
Volatility bioassays were conducted exactly as described in a previous report (Scharf et al., 2006). Briefly, bioassays took place in 0.5-l glass jars with metal lids. Mixed-sex flies were isolated from lab colonies and placed in 4-ml dram vials in groups of ten, along with a dried piece of laboratory diet. The dram vials were capped with open-top septum caps that were covered with fine mesh (held in place by non-toxic glue). For bioassays, the assembled dram vials were placed into the 0.5-l jars along with a folded filter paper “tent” (Whatman #1; Vineland, N.J.). The filter paper was treated with either an insecticide dilution or acetone, the jar was sealed with the metal lid, and the bioassay proceeded for 24-hr at room temperature. Mortality was scored based on a complete lack of movement by the flies. Four concentrations plus an acetone control were tested for all insecticides. Between five and ten replicates were performed for each concentration range on each strain-insecticide combination. Synergist bioassays were performed with a slight modification. Synergist stocks were applied to dram vials at 100 μl per vial to provide assay concentrations of 10 μg per vial. […] After treatment, vials were held at an angle in a fume hood and rotated ¼-turn each minute until the acetone evaporated. Flies and diet were added as above and held for 1-hr. Assays were initiated, run, and scored as above.
Probit analysis was performed using PROC PROBIT in the SAS software package (SAS Institute; Cary, N.C.). If control mortality ever exceeded 10% in a given replicate, that replicate was discarded. Toxicity and synergist ratios at LC50 were compared statistically using the calculation described by Robertson and Preisler (1992). Using this procedure, ratios with 95% confidence intervals were calculated using a spreadsheet-based program. With this calculation, if confidence intervals include 1.0 then ratios are considered non-significant (p>0.05; Robertson and Preisler, 1992).

[4] = solvent carriers tested alone under optimized bioassay conditions
[5] = significance at p<0.05, method of Robertson and Preisler

Compound: Cc1oc2ccccc2c1C
- LC50 (95% CL) ([1]; in vivo): 1960.0 (1543.0 − 2452.0) μg/jar

Compound: CCCCOC(=O)CC [BUTYL propionate, butyl propionate]
- LC50 (95% CL) ([1]; in vivo): 2126.0 (1894.0 − 2670.0) μg/jar

Compound: C[S+](C)[O-] [DMSO]
- mortality elicited by solvent carrier [1, 4]: No mortality

Compound: COP(=O)(OC)OC=C(Cl)Cl [Dichlorvos (DDVP), Dichlorvos, reference compound]
- Slope ± Std. Error (probit mortality line) ([2]; Table 2): 4.64 ± 0.59

Compound: O=COCCOC=O [EGDF, ethylene glycol di-formate]
- knockdown ([1]; Canton-S, by 2-hr, lasting through 24-hr, in all bioassay replicates): 100%
- Slope ± Std. Error (probit mortality line) ([2]; Table 2): 5.02 ± 2.41
- Slope ± Std. Error (probit mortality line) ([2]; Table 3, no synergist): 5.02 ± 2.41
- response of Hikone-R relative to Canton-S (LC50 ratio Hikone÷Canton, FIG. 5), in words [2, 5]: significant resistance

Compound: CCOC(C)=O [ETHYL acetate, ethyl acetate]
- LC50 (95% CL) ([1]; in vivo): 3530.0 (2488.0 − 12723.0) μg/jar

Compound: CCCC(=O)OCC [ETHYL butyrate, ethyl butyrate]
- LC50 (95% CL) ([1]; in vivo): 2034.0 (ND) μg/jar

Compound: CCOC(=O)CC [ETHYL propionate, ethyl propionate]
- LC50 (95% CL) ([1]; in vivo): 3395.0 (2439.0 − 9039.0) μg/jar

Compound: CCCCC(=O)OCC [ETHYL valerate, ethyl valerate]
- LC50 (95% CL) ([1]; in vivo): 2092.0 (1837.0 − 2670.0) μg/jar

Compound: O=CO [Formic Acid, reference compound]
- Slope ± Std. Error (probit mortality line) ([2]; Table 2): 3.29 ± 1.02

Compound: CCCCCCOC(C)=O [HEXYL acetate, hexyl acetate]
- LC50 (95% CL) ([1]; in vivo): 1666.0 (1582.0 − 1755.0) μg/jar

Compound: CCCCCCCOC=O [Heptyl Formate, heptyl formate]
- LC50 ([2]; in vivo): 1483.0 μg insecticide per 0.5 liter of headspace
- response of Hikone-R relative to Canton-S (LC50 ratio Hikone÷Canton, FIG. 5), in words ([2]; in vivo): non-significant tolerance
- LC50 ([3]; in vivo): 1656.6 μg insecticide per 0.5 liter of headspace
- response of Rd1 relative to Canton-S (LC50 ratio, FIG. 7A), in words [3, 5]: non-significant tolerance

Compound: c1ccc2[nH]ccc2c1 [INDOLE, indole]
- LC50 (95% CL) ([1]; in vivo): 2769.0 (2137.0 − 7873.0) μg/jar

Compound: CC(=O)OC(C)C [ISO-PROPYL acetate, iso-propyl acetate]
- LC50 (95% CL) ([1]; in vivo): 1611.0 (1458.0 − 1782.0) μg/jar

Compound: CCCC(=O)OC [METHYL butyrate, methyl butyrate]
- LC50 (95% CL) ([1]; in vivo): 2026.0 (1872.0 − 2314.0) μg/jar

Compound: CCC(=O)OC [METHYL propionate, methyl propionate]
- LC50 (95% CL) ([1]; in vivo): 2391.0 (2076.0 − 3433.0) μg/jar

Compound: CCCCC(=O)OC [METHYL valerate, methyl valerate]
- LC50 (95% CL) ([1]; in vivo): 2209.0 (1897.0 − 2997.0) μg/jar

Compound: CN=C=S [Methylisothiocyanate (MITC), Methylisothiocyanate, reference compound]
- Slope ± Std. Error (probit mortality line) ([2]; Table 2): 4.30 ± 0.62
- response of Hikone-R relative to Canton-S (LC50 ratio Hikone÷Canton, FIG. 5), in words [2, 5]: significantly enhanced susceptibility

Compound: CCCCCOC(C)=O [PENTYL acetate, pentyl acetate]
- LC50 (95% CL) ([1]; in vivo): 1792.0 (1658.0 − 1987.0) μg/jar

Compound: CCCOC(C)=O [PROPYL acetate, propyl acetate]
- LC50 (95% CL) ([1]; in vivo): 2056.0 (ND) μg/jar

Compound: CCCOC(=O)CCC [PROPYL butyrate, propyl butyrate]
- LC50 (95% CL) ([1]; in vivo): 2035.0 (ND) μg/jar

Compound: CCCOC(=O)CC [PROPYL propionate, propyl propionate]
- LC50 (95% CL) ([1]; in vivo): 1931.0 (ND) μg/jar

Compound: CC(C)=O [acetone]
- mortality elicited by solvent carrier [1, 4]: No mortality

Compound: CCO [ethanol]
- mortality elicited by solvent carrier ([1]; in vivo): No mortality

Compound: CCCCCC [hexane]
- mortality elicited by solvent carrier ([1]; in vivo): No mortality

Compound: CC(C)O [isopropanol]
- mortality elicited by solvent carrier [1, 4]: 100%

Compound: CO [methanol]
- mortality elicited by solvent carrier [1, 4]: No mortality

Compound: COCCO [methyl cellosolve]
- mortality elicited by solvent carrier [1, 4]: No mortality

Compound: CCCCOC(C)=O [n-BUTYL acetate, n-butyl acetate]
- LC50 (95% CL) ([1]; in vivo): 1821.0 (1730.0 − 1930.0) μg/jar

Compound: CC(=O)OC(C)(C)C [t-BUTYL acetate, t-butyl acetate]
- LC50 (95% CL) ([1]; in vivo): 2134.0 (1943.0 − 2598.0) μg/jar

Compound: methyl acetate
- Slope ± Std. Error (best-fit probit mortality line) ([1]; Table 1, Canton-S, 24 hr exposure, probit analysis): 2.86 ± 0.91
- LC50 (95% CL) ([1]; in vivo): 2268.0 (ND) μg/jar
